# Laboratory results taken from article PMC6738068 (British Journal of Cancer, 2019).
# pIC50: −log10 of the molar value.
# Key:
# CYP1A2 = tested on: CYP1A2; set-up: method as in printed; settings: preclinical testing, ref not given; cited from earlier work
# P-glycoprotein = tested on: P-glycoprotein; set-up: method as in printed; settings: preclinical testing, ref not given; cited from earlier work
# [1] = tested on: patients with advanced solid tumours; assay: Phase 1 safety: treatment-related adverse events (CTCAE v4.03); format: in vivo, human
# Method: All patients who received at least one dose of CFI-400945 were included in analyses of the safety-evaluable population. Data cut-off for the safety-evaluable population was June 5, 2018. Adverse events (AEs) were assessed according to the National Cancer Institute (NCI) Common Terminology Criteria for Adverse Events (CTCAE) v4.03. Investigators determined the causal relationship of an AE as either unrelated, possibly, probably, or related to study drug. Further information is available in Supplementary Information 1d.
# Investigators managed any AE until resolution, stabilization, or until the AE was considered no longer clinically significant. All AE and serious AE (SAE) were recorded in source documents and individual case report forms from the time of first dose of study drug until 30 days following the last dose of study drug.
# Safety evaluations were conducted at screening and during Cycle 1 on Day 1, 2, 4, 8, 11, 15, 22, and 28. In the expansion cohort, following the run-in amendment, safety evaluations were conducted on Cycle 0 Day 1, 2, 4, 8, and 11, then as above for Cycle 1. Evaluations included pre-defined combinations of medical history, physical examination, vital signs, clinical laboratory studies, and ECOG performance status.
# AurB = tested on: AurB; set-up: method as in printed; settings: preclinical, ref not given; cited from earlier work
# [2] = safety-evaluable population (n = 52)
compound,measurement,setting,value
COc1ccc2c(c1)[C@]1(C[C@H]1c1ccc3c(/C=C/c4ccc(CN5C[C@@H](C)O[C@@H](C)C5)cc4)n[nH]c3c1)C(=O)N2 [CFI-400945],time-dependent inhibition of CYP1A2,CYP1A2,time-dependent inhibitor
same,inhibition of P-glycoprotein,P-glycoprotein,inhibitor
same,grade 2 neutropenia,[1]; 48 mg dose level,one patient
same,long-term tolerability: time one patient remained on treatment,"[1]; 48 mg, at data cut-off",> 3 years
same,patients dose reduced,[1]; 64 mg,No patients
same,patients dose reduced,"[1]; 3 patients, at 72 mg and 96 mg dose levels, recurrent neutropenia",6%
same,"Anorexia, treatment-related, Grade 1/2",[1]; 3–32 mg cohort (n = 21),4 (19) N (%)
same,"Anorexia, treatment-related, Grade 3/4",[1]; 3–32 mg cohort (n = 21),0 (0) N (%)
same,"Dehydration, treatment-related, Grade 1/2",[1]; 3–32 mg cohort (n = 21),1 (5) N (%)
same,"Dehydration, treatment-related, Grade 3/4",[1]; 3–32 mg cohort (n = 21),0 (0) N (%)
same,"Diarrhoea, treatment-related, Grade 1/2",[1]; 3–32 mg cohort (n = 21),4 (19) N (%)
same,"Diarrhoea, treatment-related, Grade 3/4",[1]; 3–32 mg cohort (n = 21),0 (0) N (%)
same,"Dyspepsia, treatment-related, Grade 1/2",[1]; 3–32 mg cohort (n = 21),1 (5) N (%)
same,"Dyspepsia, treatment-related, Grade 3/4",[1]; 3–32 mg cohort (n = 21),0 (0) N (%)
same,"Fatigue, treatment-related, Grade 1/2",[1]; 3–32 mg cohort (n = 21),5 (24) N (%)
same,"Fatigue, treatment-related, Grade 3/4",[1]; 3–32 mg cohort (n = 21),0 (0) N (%)
same,"Hypomagnesaemia, treatment-related, Grade 1/2",[1]; 3–32 mg cohort (n = 21),0 (0) N (%)
same,"Hypomagnesaemia, treatment-related, Grade 3/4",[1]; 3–32 mg cohort (n = 21),0 (0) N (%)
same,"Nausea, treatment-related, Grade 1/2",[1]; 3–32 mg cohort (n = 21),3 (14) N (%)
same,"Nausea, treatment-related, Grade 3/4",[1]; 3–32 mg cohort (n = 21),0 (0) N (%)
same,"Neutropenia, treatment-related, Grade 1/2",[1]; 3–32 mg cohort (n = 21),0 (0) N (%)
same,"Neutropenia, treatment-related, Grade 3/4",[1]; 3–32 mg cohort (n = 21),0 (0) N (%)
same,"Vomiting, treatment-related, Grade 1/2",[1]; 3–32 mg cohort (n = 21),1 (5) N (%)
same,"Vomiting, treatment-related, Grade 3/4",[1]; 3–32 mg cohort (n = 21),0 (0) N (%)
same,"Anorexia, All trAEs",[1]; 3–96 mg cohort (n = 52),10 (19) N (%)
same,"Dehydration, All trAEs",[1]; 3–96 mg cohort (n = 52),3 (6) N (%)
same,"Diarrhoea, All trAEs",[1]; 3–96 mg cohort (n = 52),11 (21) N (%)
same,"Dyspepsia, All trAEs",[1]; 3–96 mg cohort (n = 52),3 (6) N (%)
same,"Fatigue, All trAEs",[1]; 3–96 mg cohort (n = 52),19 (37) N (%)
same,"Hypomagnesaemia, All trAEs",[1]; 3–96 mg cohort (n = 52),3 (6) N (%)
same,"Nausea, All trAEs",[1]; 3–96 mg cohort (n = 52),14 (27) N (%)
same,"Neutropenia, All trAEs",[1]; 3–96 mg cohort (n = 52),11 (21) N (%)
same,"Vomiting, All trAEs",[1]; 3–96 mg cohort (n = 52),4 (8) N (%)
same,grade 3/4 neutropenic events occurring in Cycle 1,[1]; 6/10 events,60%
same,"grade 3/4 treatment-related neutropenia, patients","[1]; 10/52 patients, all dose levels",19%
same,patients with dose interruptions,[1]; 27 of 52 patients,52%
same,"Anorexia, treatment-related, Grade 1/2",[1]; 48–64 mg cohort (n = 18),2 (11) N (%)
same,"Anorexia, treatment-related, Grade 3/4",[1]; 48–64 mg cohort (n = 18),0 (0) N (%)
same,"Dehydration, treatment-related, Grade 1/2",[1]; 48–64 mg cohort (n = 18),1 (6) N (%)
same,"Dehydration, treatment-related, Grade 3/4",[1]; 48–64 mg cohort (n = 18),0 (0) N (%)
same,"Diarrhoea, treatment-related, Grade 1/2",[1]; 48–64 mg cohort (n = 18),3 (17) N (%)
same,"Diarrhoea, treatment-related, Grade 3/4",[1]; 48–64 mg cohort (n = 18),1 (6) N (%)
same,"Dyspepsia, treatment-related, Grade 1/2",[1]; 48–64 mg cohort (n = 18),1 (6) N (%)
same,"Dyspepsia, treatment-related, Grade 3/4",[1]; 48–64 mg cohort (n = 18),0 (0) N (%)
same,"Fatigue, treatment-related, Grade 1/2",[1]; 48–64 mg cohort (n = 18),9 (50) N (%)
same,"Fatigue, treatment-related, Grade 3/4",[1]; 48–64 mg cohort (n = 18),0 (0) N (%)
same,"Hypomagnesaemia, treatment-related, Grade 1/2",[1]; 48–64 mg cohort (n = 18),1 (6) N (%)
same,"Hypomagnesaemia, treatment-related, Grade 3/4",[1]; 48–64 mg cohort (n = 18),0 (0) N (%)
same,"Nausea, treatment-related, Grade 1/2",[1]; 48–64 mg cohort (n = 18),5 (28) N (%)
same,"Nausea, treatment-related, Grade 3/4",[1]; 48–64 mg cohort (n = 18),0 (0) N (%)
same,"Neutropenia, treatment-related, Grade 1/2",[1]; 48–64 mg cohort (n = 18),1 (6) N (%)
same,"Neutropenia, treatment-related, Grade 3/4",[1]; 48–64 mg cohort (n = 18),3 (17) N (%)
same,"Vomiting, treatment-related, Grade 1/2",[1]; 48–64 mg cohort (n = 18),1 (6) N (%)
same,"Vomiting, treatment-related, Grade 3/4",[1]; 48–64 mg cohort (n = 18),1 (6) N (%)
same,"Anorexia, treatment-related, Grade 1/2",[1]; 72–96 mg cohort (n = 13),4 (31) N (%)
same,"Anorexia, treatment-related, Grade 3/4",[1]; 72–96 mg cohort (n = 13),0 (0) N (%)
same,"Dehydration, treatment-related, Grade 1/2",[1]; 72–96 mg cohort (n = 13),1 (8) N (%)
same,"Dehydration, treatment-related, Grade 3/4",[1]; 72–96 mg cohort (n = 13),0 (0) N (%)
same,"Diarrhoea, treatment-related, Grade 1/2",[1]; 72–96 mg cohort (n = 13),3 (23) N (%)
same,"Diarrhoea, treatment-related, Grade 3/4",[1]; 72–96 mg cohort (n = 13),0 (0) N (%)
same,"Dyspepsia, treatment-related, Grade 1/2",[1]; 72–96 mg cohort (n = 13),1 (8) N (%)
same,"Dyspepsia, treatment-related, Grade 3/4",[1]; 72–96 mg cohort (n = 13),0 (0) N (%)
same,"Fatigue, treatment-related, Grade 1/2",[1]; 72–96 mg cohort (n = 13),5 (38) N (%)
same,"Fatigue, treatment-related, Grade 3/4",[1]; 72–96 mg cohort (n = 13),0 (0) N (%)
same,"Hypomagnesaemia, treatment-related, Grade 1/2",[1]; 72–96 mg cohort (n = 13),2 (15) N (%)
same,"Hypomagnesaemia, treatment-related, Grade 3/4",[1]; 72–96 mg cohort (n = 13),0 (0) N (%)
same,"Nausea, treatment-related, Grade 1/2",[1]; 72–96 mg cohort (n = 13),6 (46) N (%)
same,"Nausea, treatment-related, Grade 3/4",[1]; 72–96 mg cohort (n = 13),0 (0) N (%)
same,"Neutropenia, treatment-related, Grade 1/2",[1]; 72–96 mg cohort (n = 13),0 (0) N (%)
same,"Neutropenia, treatment-related, Grade 3/4",[1]; 72–96 mg cohort (n = 13),7 (54) N (%)
same,"Vomiting, treatment-related, Grade 1/2",[1]; 72–96 mg cohort (n = 13),1 (8) N (%)
same,"Vomiting, treatment-related, Grade 3/4",[1]; 72–96 mg cohort (n = 13),0 (0) N (%)
same,median time for neutrophils to recover to grade ≤1,[1]; in vivo,7 days
same,median time to first grade 3/4 neutropenic event,[1]; in vivo,18 days
same,"time for neutrophils to recover to grade ≤1, range",[1]; in vivo,6 to 14 days
same,"time to first grade 3/4 neutropenic event, range",[1]; in vivo,14 to 126 days
same,treatment-related AEs leading to study discontinuation,"[1]; one DLT at 72 mg, one DLT in 64 mg cohort",two patients
same,"treatment-related anorexia, patients",[1]; [2],19%
same,"treatment-related dehydration, patients",[1]; [2],6%
same,"treatment-related diarrhoea, patients",[1]; [2],21%
same,"treatment-related dyspepsia, patients",[1]; [2],6%
same,"treatment-related fatigue, patients",[1]; [2],37%
same,"treatment-related hypomagnesaemia, patients",[1]; [2],6%
same,"treatment-related neutropenia, patients",[1]; [2],21%
same,"treatment-related vomiting, patients",[1]; [2],8%
same,pIC50,AurB,> 7.00
